Measurements from PMC10387993, “New pyrimidine-N-β-D-glucosides: synthesis, biological evaluation, and molecular docking investigations” (Turkish Journal of Chemistry, 2023).
Values after ≈ are worked out from the molar mass of the structure shown. Read-outs that look alike come from different tables or passages of the source.

How the values were obtained:
Type in all cases: cell-based
MCF7 = test: cells; conditions: Homo sapiens; for LC50 (concentration causing 50% net cell loss relative to time zero): MCF7, read-out: LC50; for GI50 / IC50 / IC (total growth inhibition): MCF7, MTT; for IC50: read-out: IC50; for IC (total growth inhibition): read-out: TGI
Summary of the method: (§1)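 Proliferation was measured with the MTT method on cells grown in serum-supplemented DMEM or RPMI 1640 and seeded near 1 × 10^4 per well. Growth parameters GI50, TGI and LC50 were computed from absorbances at time zero, in control growth and under drug.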

in vitro = conditions: human, LC50
Summary of the method: as §1

normal FL cells = test: cells; conditions: FL normal cells, MTT; for IC50: read-out: IC50; for IC (total growth inhibition): read-out: TGI
Summary of the method: as §1

[1] = LDH cytotoxic activity assay, C6; conditions: rat, C6 glioma cells; for cytotoxicity at 24 h, 25 μg/mL: C6, 25 μg/mL; for cytotoxicity at 24 h, 50 μg/mL: C6, 50 μg/mL; for cytotoxicity at 24 h, 75 μg/mL: C6, 75 μg/mL; for cytotoxicity at 24 h, 100 μg/mL: C6, 100 μg/mL
Summary of the method: (§2)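 LDH release, A492–630 nm; ~5 × 10^3 cells/well, triplicate; cpd 25/50/75/100 μg/mL, 24 h, 37 °C, 5% CO2; DMEM or RPMI 1640 + 10% FBS.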

[2] = LDH cytotoxic activity assay, HeLa; conditions: human, HeLa cells
Summary of the method: as §2

[3] = LDH cytotoxic activity assay, HT29; conditions: human, HT29 cells; for cytotoxicity at 24 h, 25 μg/mL: HT29, 25 μg/mL; for cytotoxicity at 24 h, 50 μg/mL: HT29, 50 μg/mL; for cytotoxicity at 24 h, 75 μg/mL: HT29, 75 μg/mL; for cytotoxicity at 24 h, 100 μg/mL: HT29, 100 μg/mL
Summary of the method: as §2

[4] = tested on: A. actinomycetemcomitans ATCC 33384; test: Microdilution MIC assay; conditions: Aggregatibacter actinomycetemcomitans, ATCC33384; A. actinomycetemcomitans ATCC 33384, 24 h at 35 °C
Summary of the method: (§3)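 MICs come from a microwell dilution format incubated for 24 h at 35 °C, with the endpoint being the lowest concentration that prevented visible growth.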

E. coli ATCC 25922 = test: Microdilution MIC assay; conditions: Escherichia coli, ATCC25922; E. coli ATCC 25922, 24 h at 35 °C
Summary of the method: as §3

E. coli ESBL ATCC 35218 = test: Microdilution MIC assay; conditions: Escherichia coli, ATCC35218; E. coli ESBL ATCC 35218, 24 h at 35 °C
Summary of the method: as §3

E. faecalis ATCC 29212 = test: Microdilution MIC assay; conditions: Enterococcus faecalis, ATCC29212, 24 h, E. faecalis ATCC 29212, 24 h at 35 °C; read-out: MIC
Summary of the method: as §3

[5] = tested on: E. faecalis VRE ATCC 19433; test: Microdilution MIC assay; conditions: Enterococcus faecalis; E. faecalis VRE ATCC 19433, 24 h at 35 °C
Summary of the method: as §3

[6] = tested on: P. aeruginosa AGME ATCC 27853; test: Microdilution MIC assay; conditions: Pseudomonas aeruginosa, ATCC27853; P. aeruginosa AGME ATCC 27853, 24 h at 35 °C
Summary of the method: as §3

S. aureus ATCC 25923 = test: Microdilution MIC assay; conditions: S. aureus ATCC 25923, 24 h at 35 °C
Summary of the method: as §3

[7] = tested on: S. aureus MRSA ATCC 46300; test: Microdilution MIC assay; conditions: S. aureus MRSA ATCC 46300, 24 h at 35 °C
Summary of the method: as §3

[8] = tested on: S. aureus MSSA ATCC 29213; test: Microdilution MIC assay; conditions: S. aureus MSSA ATCC 29213, 24 h at 35 °C
Summary of the method: as §3

S. gordonii NCTC 7870 = test: Microdilution MIC assay; conditions: Streptococcus gordonii, NCTC7870; S. gordonii NCTC 7870, 24 h at 35 °C
Summary of the method: as §3

S. mutans ATCC 35668 = test: Microdilution MIC assay; conditions: S. mutans ATCC 35668, 24 h at 35 °C
Summary of the method: as §3

[9] = Staphylococcus aureus, ATCC25923, 24 h, read-out: MIC
[10] = Staphylococcus aureus, read-out: MIC
[11] = Staphylococcus aureus, 24 h, read-out: MIC
[12] = Streptococcus mutans, ATCC35668, 24 h, read-out: MIC

With `Cc1ccc(-c2cc(-c3ccccn3)nc(N[C@@H]3O[C@H](CO)[C@@H](O)[C@H](O)[C@H]3O)n2)cc1` [Compound 7, N-[4-(4-methylphenyl)-6-pyridin-2-ylpyrimidin-2-yl]-β-D-glucopyranosylamine] the LC50 (concentration causing 50% net cell loss relative to time zero) (MCF7) was > 500 µg/mL, the GI50 (MCF7) was 2.04 µg/mL (≈ 4.81 µM) and the IC50 (MCF7) was > 500 µg/mL. The IC (total growth inhibition) (MCF7) was > 500 µg/mL, the LC50 (concentration causing 50% net cell loss) (in vitro) was > 500 µg/mL and the GI50 (normal FL cells) was 6.1 µg/mL (≈ 14.4 µM). It also gave an IC50 (normal FL cells) of 255 µg/mL (≈ 600 µM), an IC (total growth inhibition) (normal FL cells) of 266 µg/mL and a cytotoxicity at 24 h, 25 μg/mL [1] of 22%. For the same molecule, the cytotoxicity at 24 h, 50 μg/mL [1] was 48.6%, the cytotoxicity at 24 h, 75 μg/mL [1] was 69.5% and the cytotoxicity at 24 h, 100 μg/mL [1] was 85.8%. It also gave a cytotoxicity at 24 h, 25 μg/mL [2] of 11.9%, a cytotoxicity at 24 h, 50 μg/mL [2] of 25.1% and a cytotoxicity at 24 h, 75 μg/mL [2] of 38.4%. The cytotoxicity at 24 h, 100 μg/mL [2] was 50.7%, the cytotoxicity at 24 h, 25 μg/mL [3] was 26% and the cytotoxicity at 24 h, 50 μg/mL [3] was 40.7%. The cytotoxicity at 24 h, 75 μg/mL [3] was 75.9%, the cytotoxicity at 24 h, 100 μg/mL [3] was 91.8% and the MIC [4] was 250 µg/mL (≈ 589 µM). The MIC (E. coli ATCC 25922) was > 1000 µg/mL, the MIC (E. coli ESBL ATCC 35218) was > 1000 µg/mL and the MIC (E. faecalis ATCC 29212) was 250 µg/mL (≈ 589 µM). For the same molecule, the MIC [5] was 1000 µg/mL (≈ 2360 µM), the MIC [6] was > 1000 µg/mL and the MIC (S. aureus ATCC 25923; [9]) was 250 µg/mL (≈ 589 µM). It also gave an MIC [7, 10] of 250 µg/mL (≈ 589 µM), an MIC [8, 11] of 250 µg/mL (≈ 589 µM) and an MIC (S. gordonii NCTC 7870) of 500 µg/mL (≈ 1180 µM). For the same molecule, the MIC (S. mutans ATCC 35668) was 125 µg/mL (≈ 294 µM) and the MIC (S. mutans ATCC 35668; [12]) was 62.5 to 125 µg/mL (≈ 147 to 294 µM).

In the case of `Cc1ccc(-c2cc(-c3cccnc3)nc(N[C@@H]3O[C@H](CO)[C@@H](O)[C@H](O)[C@H]3O)n2)cc1` [Compound 8, N-[4-(4-methylphenyl)-6-pyridin-3-ylpyrimidin-2-yl]-β-D-glucopyranosylamine], the LC50 (concentration causing 50% net cell loss relative to time zero) (MCF7) is reported as > 500 µg/mL, the GI50 (MCF7) is reported as 1.7 µg/mL (≈ 4.01 µM) and the IC50 (MCF7) is reported as > 500 µg/mL. The IC (total growth inhibition) (MCF7) was > 500 µg/mL, the LC50 (concentration causing 50% net cell loss) (in vitro) was > 500 µg/mL and the GI50 (normal FL cells) was 5.64 µg/mL (≈ 13.3 µM). For the same molecule, the IC50 (normal FL cells) was > 500 µg/mL, the IC (total growth inhibition) (normal FL cells) was > 500 µg/mL and the cytotoxicity at 24 h, 25 μg/mL [1] was 28.4%. It also gave a cytotoxicity at 24 h, 50 μg/mL [1] of 45.4%, a cytotoxicity at 24 h, 75 μg/mL [1] of 63.2% and a cytotoxicity at 24 h, 100 μg/mL [1] of 88.7%. It also gave a cytotoxicity at 24 h, 25 μg/mL [2] of 12.5%, a cytotoxicity at 24 h, 50 μg/mL [2] of 35% and a cytotoxicity at 24 h, 75 μg/mL [2] of 42%. The cytotoxicity at 24 h, 100 μg/mL [2] was 49%, the cytotoxicity at 24 h, 25 μg/mL [3] was 20.6% and the cytotoxicity at 24 h, 50 μg/mL [3] was 34.5%. It also gave a cytotoxicity at 24 h, 75 μg/mL [3] of 75.8%, a cytotoxicity at 24 h, 100 μg/mL [3] of 95.9% and an MIC [4] of 500 µg/mL (≈ 1180 µM). For the same molecule, the MIC (E. coli ATCC 25922) was 1000 µg/mL (≈ 2360 µM), the MIC (E. coli ESBL ATCC 35218) was > 1000 µg/mL and the MIC (E. faecalis ATCC 29212) was 1000 µg/mL (≈ 2360 µM). For the same molecule, the MIC [5] was 500 µg/mL (≈ 1180 µM), the MIC [6] was > 1000 µg/mL and the MIC (S. aureus ATCC 25923) was 15.62 µg/mL (≈ 36.8 µM). For the same molecule, the MIC (S. aureus ATCC 25923; [9]) was 15.6 to 125 µg/mL (≈ 36.8 to 294 µM), the MIC [7] was <7.81 µg/mL and the MIC [7, 10] was < 7.81 µg/mL. It also gave an MIC [8] of 62.5 µg/mL (≈ 147 µM), an MIC [8, 11] of 62.5 to 125 µg/mL (≈ 147 to 294 µM) and an MIC (S. gordonii NCTC 7870) of 250 µg/mL (≈ 589 µM). It also gave an MIC (S. mutans ATCC 35668; [12]) of 250 µg/mL (≈ 589 µM).
